Results from patent US20090304600A1 (priority 2008, published 2009).
Where two headings read alike, the source gives them in different places.

How the values were obtained:
[1] = cited from earlier work
[2] = patients with normal renal function; cited from earlier work
[3] = cited from earlier work; remark: listed apart in the source
[4] = ESRD patient, cited from earlier work

Compound	water solubility relative to calcium phosphate [1]	solubility in the dialysis solution (hemodialysis dialysate)	solubility in peritoneal dialysis solutions (peritoneal dialysis solutions)	serum half-life [2]	elimination route ([3]; anuric dogs)	half-life ([3]; anuric dogs)	metabolic clearance rate ([3]; dogs, during renal failure)	volume of distribution ([3]; dogs, during renal failure)	distribution ([3]; normal and anuric mongrel dogs)	cleared renally ([3]; normal dogs)	half-life ([3]; normal dogs)	serum sodium thiosulfate concentration ([4]; 15 min after infusion)	serum sodium thiosulfate concentration ([4]; after a 4-h hemodialysis session)	serum sodium thiosulfate concentration ([4]; before hemodialysis (52 h after administration))	calculated half life [4]	solubility in water [1]
O=S([O-])([O-])=S.[Ca+2] [Calcium thiosulfate]	many folds more water soluble than calcium phosphate															
O=S([O-])([O-])=S.[Na+].[Na+] [sodium thiosulfate]		soluble	soluble	0.25 h	primarily through the biliary system	3.98 h	decreased drastically	doubled	distributes rapidly throughout the extracellular space	> 98%	0.78 h	110 µg/mL	0 µg/mL	1.2 µg/mL	7.97 h	soluble in water
